Laboratory results taken from patent US11338026B2, “Identification of immunologically protective neo-epitopes for the treatment of cancers” (THE UNIVERSITY OF CONNECTICUT, priority 2014, dated 2022).
Like-named read-outs stand apart in the source and are kept apart here. Peptide text beside a SMILES is read from it.

Experiments:
CD8+ cells [1] = experiment: Intracellular IFN-γ assay by FACS (ICS) on lymphocytes of immunized mice; type: in vivo, BALB/c mice; conditions: for immunogenicity of WT counterpart (functional effector T cells): mice immunized with the WT counterpart of the named neo-epitope
Method: Intracellular IFN-γ assay by FACS and ELISPOT. Lymphocytes were incubated either with or without 1-10 μg/ml peptide. GolgiPlug (BD Biosciences, San Jose, Calif.) was added 1 h later. After incubation of 12 to 16 h, cells were stained for CD44 (clone IM7), CD4 (clone GK1.5) and CD8 (clone 53-6.7) (BD Biosciences, San Jose, Calif.), fixed and permeabilized using the Cytofix/Cytoperm™ kit (BD Biosciences, San Jose, Calif.), and stained for intracellular IFN-γ using Phycoerythrin-conjugated anti-mouse IFN-γ (clone XMG1.2, BD Biosciences, San Jose, Calif.). Cells were stained with 1 μl antibody/million cells in 50 μl staining buffer (PBS with 1% bovine serum albumin) and incubated for 20 min at 4° C. in the dark, or according to the manufacturer's instructions. Cells without peptide stimulation were used as a negative control, and the values for these controls was very close to the values seen with the negative control peptide. Typically, 95,000-129,000 lymphocytes (14,500-17,000 CD8+CD4− cells) were acquired. The background is consistently very low (10% of the signal).
(§1) All 18 peptides were used to immunize BALB/c mice. The draining lymph nodes (dLNs) of immunized mice were harvested one week after the single immunization, and the cells were stimulated in vitro for 16 h without any added peptide, the mutant peptide used for immunization, or the corresponding wild type peptide. The CD8+ cells were analyzed for activation (CD44+) and effector function (intracellular IFNγ+). (see Materials and Methods regarding the details of FACS analysis.) All possible patterns of immune-reactivity were observed (FIG. 3A): no immune response (12/18), a mutant peptide-specific, i.e. tumor-specific immune response (5/18), and a cross-reactive response between the mutant and corresponding wild type peptides (1/18).

H-2 K^d = target: T1, H-2 K^d (Mus musculus, UniProt P01902); experiment: Binding assays: inhibition of binding of a radiolabeled standard peptide to purified MHC molecules
T1 sequence (P01902 22-368): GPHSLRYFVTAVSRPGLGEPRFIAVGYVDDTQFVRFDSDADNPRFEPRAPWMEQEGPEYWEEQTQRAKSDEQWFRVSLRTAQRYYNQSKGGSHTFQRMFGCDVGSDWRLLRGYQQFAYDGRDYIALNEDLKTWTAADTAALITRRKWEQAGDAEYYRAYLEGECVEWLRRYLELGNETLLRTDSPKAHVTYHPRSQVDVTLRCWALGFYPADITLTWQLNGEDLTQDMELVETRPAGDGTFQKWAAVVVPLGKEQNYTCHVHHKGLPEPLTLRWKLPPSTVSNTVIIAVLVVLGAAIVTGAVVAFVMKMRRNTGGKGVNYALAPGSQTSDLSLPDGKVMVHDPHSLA
T1 sequence (P01887 21-119 partner): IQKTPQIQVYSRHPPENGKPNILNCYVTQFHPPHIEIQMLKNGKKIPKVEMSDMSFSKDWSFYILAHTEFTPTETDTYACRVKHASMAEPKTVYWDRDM
Method: Binding assays. Binding of peptides to H-2 K^d was determined using quantitative assays based on the inhibition of binding of a radiolabeled standard peptide to purified MHC molecules essentially as described previously. […] Under the conditions utilized, where [label]<[MHC] and IC50≥[MHC], the measured IC50 values are reasonable approximations of the dissociation constant values.

CD8+ cells [2] = experiment: IFNγ ELISPOT on CD8+ cells of immunized mice; type: in vivo, BALB/c mice; conditions: for ELISpot: mice immunized with mutant peptide; for CD8 T cell response of immunized mice: text, ELISPOT
Method: For the ELISPOT assays, the negative controls were CD8+ cells from immunized mice without peptide stimulation. […] The magnitude of responses was rated by mean spot numbers per million CD8+ cells: 5-10 (+); 11-20 (++); 21-50 (+++); 51-100(++++) and >100(+++++).
as §1

CMS5 = experiment: Tumor challenge / tumor rejection after peptide immunization, CMS5; type: in vivo, BALB/c mice
Method: Tumor challenge and representation of tumor growth. AUC as a tool to measure tumor growth has been described previously. Briefly, AUC was calculated by selecting “Curves & Regression” and then “Area under curve” from the “analyze” tool, using the Prism 5.0 (GraphPad Software, Inc., La Jolla, Calif.). Grubb' test was used to remove up to one outlier from each group.
Depletion of T cell subsets. Immunized mice were depleted of CD8 cells using anti-CD8 rat IgG2b monoclonal antibody 2.43), or depleted of CD4 cells using anti-CD4 rat IgG2b monoclonal antibody GK1.5. Depleting antibodies were given in PBS intraperitoneally two days before tumor challenge and every seven days for the duration of the experiment. First three injections of depleting antibodies were 250 μg per mouse and the later injections were 500 μg per mouse. For treatment with antagonistic antibodies, mice were treated with anti-CD25 antibody (clone PC61, 250 μg, two days before tumor challenge) or anti-CTLA-4 antibody (clone 9D9, 100 μg, seven days before and every three days after tumor challenge). The appropriate T cell sub-sets were depleted by over 95%.
Lack of immuno-protective activity of the strongest K^d-binding neo-epitopes. […]

Row | Molecule | immunogenicity of WT counterpart (functional effector T cells) (CD8+ cells [1]) | CD8 T cell response by intracellular cytokine assay (CD8+ cells [1]) | ELISpot (CD8+ cells [2]) | CD8 T cell response of immunized mice (CD8+ cells [2]) | protection from tumor growth / tumor rejection (CMS5) | also measured
1 | CC(C)C[C@H](NC(=O)[C@H](Cc1ccc(O)cc1)NC(=O)[C@@H](N)CC(C)C)C(=O)N[C@@H](CC(=O)O)C(=O)N[C@@H](CO)C(=O)N[C@@H](CCCCN)C(=O)N[C@@H](CO)C(=O)N[C@@H](CC(=O)O)C(=O)N[C@H](C(=O)N[C@H](C(=O)N[C@H](C(=O)O)C(C)C)[C@@H](C)O)[C@@H](C)O [Alms1.1] | elicited functional effector T cells in vivo |  |  |  |  | 
2 | SIINFEKL (listed as Gallus gallus) [reference compound] |  |  |  |  |  | CD8 response after second immunization (Prime vs Boost) (CD8+ cells [1]; 100 μg peptide once or twice with a 29-day interval): amplified by a second immunization
3 | CSCC[C@H](NC(=O)[C@H](CC(C)C)NC(=O)CNC(=O)[C@@H]1CCCN1C(=O)[C@H](Cc1ccccc1)NC(=O)[C@@H](NC(=O)[C@@H](N)CCC(N)=O)C(C)C)C(=O)N[C@@H](CCC(=O)O)C(=O)N[C@@H](CC(C)C)C(=O)O [Atxn10.1] (H-QVFPGLMEL-OH; N-terminus and C-terminus assumed) |  | un-detectable by the intracellular cytokine assay | +++ (21-50 spots/10^6 CD8 = +++) | modest CD8 T cell response | representative neo-epitopes that do | IC50 (H-2 K^d; WT counterpart peptide, read-out: Measured IC50 for K^d (Mut/WT): WT): 7050 nM
4 | CC(C)[C@H](NC(=O)[C@H](CO)NC(=O)[C@@H](NC(=O)[C@H](CCCCN)NC(=O)[C@H](C)NC(=O)[C@H](CCCCN)NC(=O)[C@H](CO)NC(=O)[C@@H](NC(=O)[C@H](Cc1ccccc1)NC(=O)[C@H](Cc1ccc(O)cc1)NC(=O)CN)C(C)C)[C@@H](C)O)C(=O)O (racemic) [Abr] | elicited functional effector T cells in vivo |  |  |  |  | 
5 | CSCC[C@H](NC(=O)[C@@H]1CCCN1C(=O)[C@@H](NC(=O)[C@H](Cc1ccc(O)cc1)NC(=O)[C@@H](N)CC(=O)O)C(C)C)C(=O)N[C@@H](CCC(=O)O)C(=O)N[C@@H](CCC(N)=O)C(=O)N1CCC[C@H]1C(=O)N[C@@H](CCCNC(=N)N)C(=O)O [Alkbh6.2, D(y/D)VPMEQPR] (H-DYVPMEQPR-OH; N-terminus and C-terminus assumed) |  | un-detectable by the intracellular cytokine assay | ++ (10-20 spots/10^6 CD8 = ++) | modest CD8 T cell response | representative neo-epitopes that do | 
6 | CC(C)C[C@H](NC(=O)[C@@H]1CCCN1C(=O)[C@@H](NC(=O)[C@H](CCCNC(=N)N)NC(=O)[C@H](CCCCN)NC(=O)[C@H](CC(C)C)NC(=O)[C@H](CC(C)C)NC(=O)[C@@H]1CCCN1C(=O)[C@@H](NC(=O)[C@H](Cc1ccc(O)cc1)NC(=O)[C@@H](N)Cc1ccc(O)cc1)C(C)C)C(C)C)C(=O)O [Alms1.2] (H-YYVPLLKRVPL-OH) | elicited functional effector T cells in vivo |  | ++ (10-20 spots/10^6 CD8 = ++) |  |  | IC50 (H-2 K^d): 1480 nM; IC50 (H-2 K^d; mutant peptide, read-out: Measured IC50 for K^d (Mut/WT): Mut): 421 nM
